Experimental data from the supplement of paper PMC10307832.

Key:
Assay in all cases: relative viability (nuclei count vs DMSO), 5 days (fraction); higher = more cells survive
HCC-15 = test system: HCC-15
Procedure, shortened: (§1)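 For relative viability, nuclei counts in treated wells were divided by those in vehicle wells. Lung cancer cell lines had been pin-tool dosed in 1536-well plates the day after seeding and cultured for 5 days, then fixed and stained in one step (final 0.05% Triton X-100, 1% formaldehyde, 1 ug/ml Hoechst) and imaged at 4×. Doses were one drug alone or a fixed anchor-drug dose plus five library-drug doses (not always all listed) in √10 steps, and values are duplicate-plate medians.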

LC-2-ad = test system: LC-2-ad
Procedure, shortened: as §1

NCI-H2126 = test system: NCI-H2126
Procedure, shortened: as §1

NCI-H1975 = test system: NCI-H1975
Procedure, shortened: as §1

SK-LU-1 = test system: SK-LU-1
Procedure, shortened: as §1

NCI-H522 = test system: NCI-H522
Procedure, shortened: as §1

NCI-H1915 = test system: NCI-H1915
Procedure, shortened: as §1

LXF-289 = test system: LXF-289
Procedure, shortened: as §1

HOP-62 = test system: HOP-62
Procedure, shortened: as §1

NCI-H1734 = test system: NCI-H1734
Procedure, shortened: as §1

NCI-H1755 = test system: NCI-H1755
Procedure, shortened: as §1

NCI-H2228 = test system: NCI-H2228
Procedure, shortened: as §1

RERF-LC-KJ = test system: RERF-LC-KJ
Procedure, shortened: as §1

NCI-H358 = test system: NCI-H358
Procedure, shortened: as §1

A-427 = test system: A-427
Procedure, shortened: as §1

PC-3 [JPC-3] = test system: PC-3 [JPC-3]
Procedure, shortened: as §1

NCI-H2342 = test system: NCI-H2342
Procedure, shortened: as §1

HCC-78 = test system: HCC-78
Procedure, shortened: as §1

NCI-H1792 = test system: NCI-H1792
Procedure, shortened: as §1

NCI-H2347 = test system: NCI-H2347
Procedure, shortened: as §1

NCI-H647 = test system: NCI-H647
Procedure, shortened: as §1

SW 1573 = test system: SW 1573
Procedure, shortened: as §1

SMILES: Cc1sc2c(c1C)C(c1ccc(Cl)cc1)=N[C@@H](CC(=O)OC(C)(C)C)c1nnc(C)n1-2 [JQ1] + O=C(c1cc(Cc2n[nH]c(=O)c3ccccc23)ccc1F)N1CCN(C(=O)C2CC2)CC1 [Olaparib] (partner 8 µM)
- relative viability (HCC-15; first compound 0.04 µM): 0.528
- relative viability (HCC-15; first compound 0.1265 µM): 0.641
- relative viability (HCC-15; first compound 0.4 µM): 0.693
- relative viability (HCC-15; first compound 1.265 µM): 0.58
- relative viability (HCC-15; first compound 4 µM): 0.392
- relative viability (LC-2-ad; first compound 0.04 µM): 0.701
- relative viability (LC-2-ad; first compound 0.1265 µM): 0.599
- relative viability (LC-2-ad; first compound 0.4 µM): 0.332
- relative viability (LC-2-ad; first compound 1.265 µM): 0.256
- relative viability (LC-2-ad; first compound 4 µM): 0.256
- relative viability (NCI-H2126; first compound 0.04 µM): 0.895
- relative viability (NCI-H2126; first compound 0.1265 µM): 0.909
- relative viability (NCI-H2126; first compound 0.4 µM): 0.951
- relative viability (NCI-H2126; first compound 1.265 µM): 0.8
- relative viability (NCI-H2126; first compound 4 µM): 0.735
- relative viability (NCI-H1975; first compound 0.04 µM): 0.747
- relative viability (NCI-H1975; first compound 0.1265 µM): 0.608
- relative viability (NCI-H1975; first compound 0.4 µM): 0.473
- relative viability (NCI-H1975; first compound 1.265 µM): 0.281
- relative viability (NCI-H1975; first compound 4 µM): 0.342
- relative viability (SK-LU-1; first compound 0.04 µM): 0.452
- relative viability (SK-LU-1; first compound 0.1265 µM): 0.358
- relative viability (SK-LU-1; first compound 0.4 µM): 0.374
- relative viability (SK-LU-1; first compound 1.265 µM): 0.153
- relative viability (SK-LU-1; first compound 4 µM): 0.124
- relative viability (NCI-H522; first compound 0.04 µM): 0.577
- relative viability (NCI-H522; first compound 0.1265 µM): 0.674
- relative viability (NCI-H522; first compound 0.4 µM): 0.453
- relative viability (NCI-H522; first compound 1.265 µM): 0.388
- relative viability (NCI-H522; first compound 4 µM): 0.344
- relative viability (NCI-H1915; first compound 0.04 µM): 0.23
- relative viability (NCI-H1915; first compound 0.4 µM): 0.184
- relative viability (NCI-H1915; first compound 1.265 µM): 0.138
- relative viability (NCI-H1915; first compound 4 µM): 0.107
- relative viability (LXF-289; first compound 0.04 µM): 0.99
- relative viability (LXF-289; first compound 0.1265 µM): 1.06
- relative viability (LXF-289; first compound 0.4 µM): 0.744
- relative viability (LXF-289; first compound 1.265 µM): 0.47
- relative viability (LXF-289; first compound 4 µM): 0.258
- relative viability (HOP-62; first compound 0.04 µM): 0.306
- relative viability (HOP-62; first compound 0.1265 µM): 0.285
- relative viability (HOP-62; first compound 0.4 µM): 0.18
- relative viability (HOP-62; first compound 1.265 µM): 0.114
- relative viability (HOP-62; first compound 4 µM): 0.115
- relative viability (NCI-H1734; first compound 0.04 µM): 0.606
- relative viability (NCI-H1734; first compound 0.1265 µM): 0.556
- relative viability (NCI-H1734; first compound 0.4 µM): 0.563
- relative viability (NCI-H1734; first compound 1.265 µM): 0.47
- relative viability (NCI-H1734; first compound 4 µM): 0.349
- relative viability (NCI-H1755; first compound 0.04 µM): 0.887
- relative viability (NCI-H1755; first compound 0.1265 µM): 0.824
- relative viability (NCI-H1755; first compound 0.4 µM): 0.806
- relative viability (NCI-H1755; first compound 1.265 µM): 0.644
- relative viability (NCI-H1755; first compound 4 µM): 0.611
- relative viability (NCI-H2228; first compound 0.04 µM): 0.628
- relative viability (NCI-H2228; first compound 0.1265 µM): 0.434
- relative viability (NCI-H2228; first compound 0.4 µM): 0.356
- relative viability (NCI-H2228; first compound 1.265 µM): 0.123
- relative viability (NCI-H2228; first compound 4 µM): 0.181
- relative viability (RERF-LC-KJ; first compound 0.04 µM): 0.904
- relative viability (RERF-LC-KJ; first compound 0.1265 µM): 0.808
- relative viability (RERF-LC-KJ; first compound 0.4 µM): 0.669
- relative viability (RERF-LC-KJ; first compound 1.265 µM): 0.42
- relative viability (RERF-LC-KJ; first compound 4 µM): 0.338
- relative viability (NCI-H358; first compound 0.04 µM): 0.509
- relative viability (NCI-H358; first compound 0.1265 µM): 0.58
- relative viability (NCI-H358; first compound 0.4 µM): 0.604
- relative viability (NCI-H358; first compound 1.265 µM): 0.406
- relative viability (NCI-H358; first compound 4 µM): 0.37
- relative viability (A-427; first compound 0.04 µM): 0.693
- relative viability (A-427; first compound 0.1265 µM): 0.72
- relative viability (A-427; first compound 0.4 µM): 0.83
- relative viability (A-427; first compound 1.265 µM): 0.709
- relative viability (A-427; first compound 4 µM): 0.418
- relative viability (PC-3 [JPC-3]; first compound 0.04 µM): 1.1
- relative viability (PC-3 [JPC-3]; first compound 0.1265 µM): 0.992
- relative viability (PC-3 [JPC-3]; first compound 0.4 µM): 1.05
- relative viability (PC-3 [JPC-3]; first compound 1.265 µM): 0.66
- relative viability (PC-3 [JPC-3]; first compound 4 µM): 0.385
- relative viability (NCI-H2342; first compound 0.04 µM): 0.5
- relative viability (NCI-H2342; first compound 0.1265 µM): 0.501
- relative viability (NCI-H2342; first compound 0.4 µM): 0.476
- relative viability (NCI-H2342; first compound 1.265 µM): 0.313
- relative viability (NCI-H2342; first compound 4 µM): 0.295
- relative viability (HCC-78; first compound 0.04 µM): 0.7
- relative viability (HCC-78; first compound 0.1265 µM): 0.693
- relative viability (HCC-78; first compound 0.4 µM): 0.807
- relative viability (HCC-78; first compound 1.265 µM): 0.581
- relative viability (HCC-78; first compound 4 µM): 0.494
- relative viability (NCI-H1792; first compound 0.04 µM): 0.378
- relative viability (NCI-H1792; first compound 0.1265 µM): 0.266
- relative viability (NCI-H1792; first compound 0.4 µM): 0.392
- relative viability (NCI-H1792; first compound 1.265 µM): 0.139
- relative viability (NCI-H1792; first compound 4 µM): 0.0406
- relative viability (NCI-H2347; first compound 0.04 µM): 0.544
- relative viability (NCI-H2347; first compound 0.1265 µM): 0.557
- relative viability (NCI-H2347; first compound 0.4 µM): 0.477
- relative viability (NCI-H2347; first compound 1.265 µM): 0.435
- relative viability (NCI-H2347; first compound 4 µM): 0.409
- relative viability (NCI-H647; first compound 0.04 µM): 0.384
- relative viability (NCI-H647; first compound 0.1265 µM): 0.185
- relative viability (NCI-H647; first compound 0.4 µM): 0.128
- relative viability (NCI-H647; first compound 1.265 µM): 0.0378
- relative viability (NCI-H647; first compound 4 µM): 0.036
- relative viability (SW 1573; first compound 0.04 µM): 0.428
- relative viability (SW 1573; first compound 0.1265 µM): 0.317
- relative viability (SW 1573; first compound 0.4 µM): 0.344
- relative viability (SW 1573; first compound 1.265 µM): 0.211
- relative viability (SW 1573; first compound 4 µM): 0.178
